A short description of data set [1]: Solubility in water, ethanol and organic solvents. The format is physicochemical.
For data set [2] the following is noted: relative to sucrose; cited from earlier work.
For data set [3] the following is noted: under some pH conditions, compared with aspartame; cited from earlier work.

This is an account of results in US6365217B2, “N-[N-(3,3-dimethylbutyl)-L-α-aspartyl]-L-phenylalanine 1-methyl ester agglomerate” (The Nutra Sweet Company, priority 1999, dated 2002).

Structures are written as SMILES. Residues, ends and D or L forms follow the SMILES beside them.

Regarding `COC(=O)[C@H](Cc1ccccc1)NC(=O)[C@H](CC(=O)O)NCCC(C)(C)C` [N-[N-(3,3-dimethylbutyl)-L-α-aspartyl]-L-phenylalanine 1-methyl ester], the “solubility in organic solvents” value in data set [1] (compared with aspartame) is reported as “much higher solubility in organic solvents than aspartame”. Also, in data set [1], the solubility in ethanol result was “greater than 100 g/100 ml”. The solubility in water entry in data set [1] (water) is given as “about 1%”. The sweetening potency result in data set [2] was “about 8,000 times”. Also, in data set [3], the stability entry is “higher stability than aspartame”.
Regarding `COC(=O)[C@H](Cc1ccccc1)NC(=O)[C@@H](N)CC(=O)O` [aspartame, reference compound] (H-Asp-Phe-OMe), the solubility in ethanol result in data set [1] is listed as “less than 0.1%”.
